Laboratory results: patent US20080081781A1, “Methods and compositions for the treatment of metabolic syndrome” (priority 2004, published 2008)

How the values were obtained:
[1] = Toxicity analysis (LD50) in rats; details: rat, in vivo
Protocol: Rats and mice were administered berberine through a variety of techniques, including orally, through subcutaneous injection, peritoneal injection and intravenous injection.

InsR = InsR expression in Bel-7402 cells; assay type: cell-based, human; details: Bel-7402 compared with HepG2
From the text: (§1) The effect of berberine on InsR was further confirmed in another hepatoma cell line, Bel-7402 […] (FIG. 18). […] The expression of PPAR-r mRNA in liver cells was not changed by berberine (data not shown).

[2] = Excretion of berberine in rats (urine, fecal matter, gall bladder secretions); assay type: in vivo, rat; details: rat, in vivo, iv
Protocol: In a final series of animal model studies, rats were orally administered 3H-berberine. Forty-eight hours after administration, excretions were tested for the presence of berberine. 2.7% of the oral dose was measured in the urine and 86% of the oral dose was measured in the fecal matter.
Rats received intravenous berberine (9.25 MBq/kg). Six days accumulation of rat urine and fecal secretions were measured for the presence of berberine. 73% of the intravenous dose of the berberine was found in the accumulated urine in both metabolized and unmetabolized forms. 10.9% of the intravenous dose was found in the fecal matter.
Three rats were given berberine (9.25 MBq/kg) intravenously. After 24 hours, gall bladder secretions were collected and evaluated for the presence of berberine. There was 10.1±0.9% (x±SD, n=3) of berberine in the gall bladder secretions.

LDLR [3] = assay: Hamster liver LDLR mRNA and protein expression (real-time RT-PCR, western blot); assay type: in vivo, Chinese hamster; details: 100 mg/kg/day of berberine, end of treatment
Protocol: Two weeks prior to treatment, female Chinese hamsters purchased from the National Institute of Vaccine and Serum research (Beijing, China) were switched to a high fat and cholesterol diet (10% lard, 10% egg yolk powder and 1% cholesterol). After two weeks, groups of 14 hamsters were given either 10 mg/kg/day of berberine through peritoneal injection, 20 mg/kg/day of berberine through peritoneal injection, 50 mg/kg/day, 100 mg/kg/day of berberine orally or saline for ten days. Serum cholesterol, triglyceride and LDL levels were measured after 4 h fasting before, during and after the course of the treatment. Four hours after the course of the treatment, the animals were sacrificed and their livers removed for analysis.
At the end of treatment, three animals from each group were killed and liver LDLR mRNA and protein expressions were examined by quantitative real-time RT-PCR and western blot analysis. For the real-time RT-PCR, reverse transcription with random primers using Superscript II at 42° C. for 30 minutes with 1 μg of total RNA was performed using the ABI Prism 7900-HT Sequence Detection System and Universal MasterMix (Applied Biosystems, Foster City, Calif.). LDLR and GAPD mRNA expression levels were determined using the human LDLR and GAPD Pre-developed TaqMan Assay Reagents (Applied Biosystems).

PPAR-r mRNA = PPAR-r mRNA expression in liver cells; assay type: cell-based; details: liver cells (data not shown)
From the text: as §1

HepG2 cells = assay: Glucose consumption of HepG2 cells with insulin, with or without InsR siRNA; assay type: cell-based, human; details: […] berberine, 0.5 nM insulin, 12 hr
Protocol: Human InsR siRNA duplex, non-specific control siRNA, siRNA transfection reagent and siRNA transfection medium were obtained from Santa Cruz Biotechnology, Inc. (Santa Cruz, Calif.) and the vendor's siRNA transfection procedure was followed. Briefly, HepG2 cells were seeded onto six-well plates in antibiotic-free RPMI-1640 medium containing 10% fetal bovine serum (FBS). After 60-80% confluence of monolayer, FBS containing medium was discarded and cells were washed with siRNA transfection medium (2 mVwell). 0.8 ml of siRNA transfection medium containing 6 μl of human InsR siRNA duplex (or control siRNA) and 6 ld^1 of siRNA transfection reagent were well mixed at room temperature for 30 min, followed by loading onto washed HepG2 cells. After an 8 hr incubation, the transfection mixture was removed and fresh RPMI-1640 medium supplied with 10% FBS was added. The cells were then incubated for 24 hr. Then, the culture medium was replaced with fresh medium and incubated for an additional 24 hr. At the end of incubation, FBS containing medium was removed and replaced with serum-free fresh RPMI-1640 medium. […] After 12 hr incubation, the amount of glucose in the sample medium was determined. The glucose consumption was calculated according to the following formula: glucose level of the fresh RPMI-1640 minus glucose level of the used RPMIN-1640. […]

LDLR [4] = assay: Cell surface LDLR protein on Bel-7402 cells (FACS); assay type: cell-based, human; details: Bel-7402 cells treated with 5 μg/ml
Protocol: Bel-7402 cells treated with 5 μg/ml of berberine were detached with cell removal buffer containing EDTA, washed and resuspended in FACS solution (PBS with 0.5% BSA and 0.02% sodium azide) at a density of 1×10^6 cells/ml. Cells were then incubated with monoclonal antibody to LDLR (Santa Cruz Biotechnology, Inc., Santa Cruz, Calif.) at a final dilution of 1:50 and left at room temperature for 1 hour. The cells were then reacted with isotope matched, nonspecific mouse IgG as a control for nonspecific staining. The cells were then washed and stained with FITC conjugated goat antibody to mouse IgG (Santa Cruz Biotechnology, Inc., Santa Cruz, Calif., 1:100 dilution) and the fluorescence intensity was analyzed by FACS (FACSort, Becton Dickinson, Franklin Lakes, N.J.).

rats = assay: Long term toxicity in rats; assay type: in vivo, rat; details: 300 mg/kg orally for 182 days
Protocol: For long term toxicity determination, rats were administered 300 mg/kg of berberine orally for 182 days.

In the case of COc1ccc2cc3[n+](cc2c1OC)CCc1cc2c(cc1-3)OCO2 [berberine], the LD50 ([1]; intraperitoneal, peritoneal injection) is reported as 138 to 146 mg/kg, the LD50 ([1]; intravenous injection) is reported as 46.2 to 63.3 mg/kg and the LD50 ([1]; oral dose) is reported as > 15000 mg/kg. The LD50 ([1]; sc, subcutaneous injection) was 7970 to 10700 mg/kg, the InsR expression (InsR) was “identical upregulating effect” and the “intravenous dose found in accumulated urine (metabolized and unmetabolized forms)” value [2] was 73%. The “intravenous dose found in the fecal matter” value [2] was 10.9%, the “increase in LDLR mRNA in hamster livers” value (LDLR [3]) was 3.5 fold and the “increase in LDLR protein in hamster livers” value (LDLR [3]) was 2.6 fold. For the same compound, the “expression of PPAR-r mRNA” value (PPAR-r mRNA) was “not changed”, the “glucose consumption of human hepatic cells treated with insulin” value (HepG2 cells) was “significantly increased” and the “increase of cell surface LDLR protein expression” value (LDLR [4]) was 4 times. The “long term toxicity: blood tests, blood biochemistry, urine analysis, histopathology” value (rats) was “No abnormalities were found”.
